# Assays:
# [1] = Drug release of impregnated multifilament in 0.01M PBS; assay type: physicochemical; conditions: release from multifilament impregnated with 1000 ppm solution; 0.01M PBS pH 7.4, 37, examined 0-100 hours
# Description: In order to examine the […] drug release of each of the multifilament samples impregnated with CAPE and GSE for 440 min and pinocembrin for 720 min in Example 3, the following test was performed. As a solvent for use in this release test, 0.01M PBS (by phosphate buffer calculator, monobasic monohydrate: 1.1832 g, and dibasic ACS reagent: 8.1572 g) was prepared and adjusted to a pH of 7.4. After standard curves of FIGS. 5A, 5B and 5C for the grapefruit seed extracts and CAPE and pinocembrin (the active components of propolis) were plotted, and then tests for the materials were performed at the respective concentrations. The standard curves for the functional materials were obtained by measuring the absorbance using JASCO V-550 UV-Vis Spectrometer (Wavelength Range: 200-900 nm; Bandwidth Selectable: 0.5 nm; Scanning Speed: 400 nm/min; Data Pitch: 1 nm). The standard curve equations shown in FIGS. 5A (CAPE), 5B (Pinocembrin) and 5C (grapefruit seed extract) are as follows: y=0.126x+0.022 CAPE (1) y=0.051x+0.021 Pinocembrin (2) y=0.002x−0.035 Grapefruit seed extract (3) wherein x is the concentration of each functional material, and y is the absorbance of each functional material. […]
# [2] = system: Staphylococcus aureus (ATCC 6538); assay: Antibacterial activity of impregnated multifilament, agar diffusion; assay type: cell-based; conditions: contained in multifilament, treatment concentration 1000 ppm, 37.1° C., 24 hours, FIG. 8
# Description: (§1) The antibacterial activity of the multifilament of Example containing the grapefruit seed extract and the active components (CAPE and pinocembrin) of propolis was tested. In the test, the cells of bacterial strains were grown in LB medium (peptone 10 g) by agar diffusion, and the growth of the bacterial strains was examined by UV-Vis spectroscopy. As the test strains, Staphylococcus aureus (ATCC 6538) and Escherichia coli DH 5α (ATCC 25922) were used. The bacterial cells were cultured at 37.1° C. for 24 hours, and then changes in the bacterial strains were measured. FIG. 8 is a set of photographs showing a comparison of antibacterial activity between a multifilament containing the grapefruit seed extract and a multifilament containing the active component (CAPE) of propolis. […] In FIG. 8, 1: a control group, 2 to 6: samples impregnated with a solution of CAPE and the grapefruit seed extract; a: a sample treated with Staphylococcus aureus; b: a sample treated with Escherichia coli DH 5α. In the photograph of FIG. 8, the treatment concentration is 1000 ppm. […] Although a lower concentration of the antibacterial material is contained in the multifilament, it is considered that the test should be carried out at 1000 ppm, because the concentration of the antibacterial material in the multifilament will be excessively low when the test is carried out at a lower concentration. […]
# [3] = system: Escherichia coli DH 5α (ATCC 25922); assay: as above; assay type: cell-based; conditions: contained in multifilament, treatment concentration 1000 ppm, 37.1° C., 24 hours, FIG. 8
# Description: as §1
# [4] = Degradation behavior of PGLA multifilament in PBS solution; assay type: physicochemical
# Text: FIG. 9 is a photograph showing the results of observing the degradation behavior of 0.1 g of the PGLA multifilament in PBS solution (pH7.4; similar to the human body) for 0 day, 10 days and 2 months. […] Also, it can be seen that the grapefruit seed extract and CAPE or pinocembrin which is the active component of propolis have no effect on the degradation of the multifilament.
Compound,time at which drug release behavior was completed [1] [h],antibacterial activity [2],antibacterial activity [3],effect on the degradation of the multifilament ([4]; pH 7.4),"effect on the degradation of the multifilament ([4]; PBS solution pH7.4, 0 day, 10 days and 2 months, FIG. 9)",degradation of the multifilament ([4]; pH 7.4)
"O=C(/C=C/c1ccc(O)c(O)c1)OCCc1ccccc1 [CAPE, caffeic acid phenethyl ester]",≤ 64,showed antibacterial activity,showed antibacterial activity,no effect,,
O=C1CC(c2ccccc2)Oc2cc(O)cc(O)c21 (stereo not shown) [pinocembrin],≤ 60,,,,no effect,
poly(glycolide-co-L-lactide) [PGLA multifilament],,,,,,significantly rapid
